Values quoted from earlier work as cited in patent publication US7060710B2, “Isoxazole pyrazoloindane derivatives as cognition enhancing GABAA α5 subtype ligands” (Merck Sharp & Dohme Ltd., priority 2001, dated 2006).

Legend:
[1] = reported by McNamara and Skelton
[2] = background statement

**Q.** Which results are given for `COC(=O)c1cc2c(cn1)[nH]c1ccccc12` [β-CCM]?
**A.** spatial learning in the Morris watermaze [1]: enhanced spatial learning; proconvulsant activity [2]: proconvulsant
